Consider 14 molecules from PubChem BioAssay (NCI).

Molecules are shown by their SMILES. Where “and” joins values, the source holds several entries; their conditions need not be identical. Identical values can stand only once.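 Grown in 96-well plates, cells were treated for 48 hours with each compound at five concentrations. Insufficient inhibition: endpoint recorded as highest concentration tested. The concentration for 50% growth inhibition is given as GI50. TGI denotes the concentration required for complete inhibition of growth.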 Bounds are passed on as bounds.

Among the test systems are BT-549 breast; SNB-19 CNS; OVCAR-3 ovarian; HCT-15 colon; MDA-MB-231 breast; HCC-2998 colon; MOLT-4 leukemia.
Assay in all cases: NCI tumour cell line growth inhibition, 48 h

`C=C(CN1CCN(c2ccccn2)CC1)c1ccc(C(=O)Nc2ccccc2N)cc1`: the GI50 is 3.95 µM with BT-549 breast; 4.87 µM in the assay with SNB-19 CNS; 1.25 µM in the assay with OVCAR-3 ovarian; 1.91 µM in the assay with HCT-15 colon; 2.17 µM in the assay with MDA-MB-231 breast; 0.664 µM in the assay on HCC-2998 colon. Besides, the TGI is 37.4 µM in the assay on BT-549 breast; 29.7 µM in the assay with SNB-19 CNS; 4.39 µM in the assay with OVCAR-3 ovarian; more than 50 µM in the assay with HCT-15 colon; more than 50 µM in the assay with MDA-MB-231 breast; 1.94 µM in the assay on HCC-2998 colon.
As to `COc1ccc2c(CN3CCCC[C@H]3O)cc3cc4c(cc3c2c1)OCO4`, the GI50 in the assay on BT-549 breast was 1.21 µM; in the assay on SNB-19 CNS, 0.445 µM; with OVCAR-3 ovarian, 0.409 µM; in the assay on HCT-15 colon, 0.369 µM; with MDA-MB-231 breast it was 0.62 µM; with MOLT-4 leukemia, 0.283 µM. The GI50 with HCC-2998 colon is 0.337 µM. Besides, the TGI in the assay with BT-549 breast was determined as 4.5 µM; in the assay on SNB-19 CNS, 7.45 µM; in the assay on OVCAR-3 ovarian it was 3.4 µM; in the assay on HCT-15 colon, 10.6 µM; in the assay on MDA-MB-231 breast, 8.43 µM; in the assay with MOLT-4 leukemia it was 4.55 µM. In the assay on HCC-2998 colon, this molecule returned a TGI of 1.48 µM.
As for `COC(=O)N[C@@H](C)CNc1nccc(-c2cn(C(C)C)nc2-c2cc(Cl)cc(NS(C)(=O)=O)c2F)n1`, the GI50 was more than 100 µM in the assay on BT-549 breast; more than 100 µM in the assay with SNB-19 CNS; 62.8 µM in the assay with OVCAR-3 ovarian; 7.46 µM with HCT-15 colon; 5.72 µM in the assay on MDA-MB-231 breast; 50.9 µM in the assay on MOLT-4 leukemia. Besides, in the assay on HCC-2998 colon, the GI50 was 30.9 µM. In addition, the TGI in the assay on BT-549 breast, in the assay with SNB-19 CNS, in the assay on OVCAR-3 ovarian, in the assay with HCT-15 colon, in the assay on MDA-MB-231 breast and in the assay on MOLT-4 leukemia was more than 100 µM each time. In the assay with HCC-2998 colon, this molecule gave a TGI of more than 100 µM.
As to `COc1ccc(C2=NNC(c3sc(Cl)nc3Cl)C2)cc1` (centres undefined), the GI50 in the assay on BT-549 breast is 2.89 µM; with SNB-19 CNS, 20.8 µM; with OVCAR-3 ovarian, 3.26 µM; with HCT-15 colon, 3.78 µM; in the assay on MDA-MB-231 breast, 3.12 µM; in the assay with MOLT-4 leukemia it was 3.58 µM. Besides, the GI50 with HCC-2998 colon was 16.9 µM. Also, the TGI with BT-549 breast stood at 9.82 µM; in the assay with SNB-19 CNS it was 68.6 µM; in the assay with OVCAR-3 ovarian, 8.79 µM; in the assay on HCT-15 colon, 19.3 µM; in the assay with MDA-MB-231 breast, 14 µM; in the assay with MOLT-4 leukemia, 22.1 µM. Also, the TGI with HCC-2998 colon stood at 33.9 µM.
Consider `CN1C2C=CC(=O)C1C(C#N)C2` (centres undefined), for which the GI50 was 34.5 µM and 93.1 µM with BT-549 breast; more than 100 µM in the assay with MDA-MB-231 breast; 32.4 µM and 74.9 µM in the assay with HCC-2998 colon. Further, the TGI was more than 100 µM in the assay with BT-549 breast; more than 100 µM with SNB-19 CNS; more than 100 µM with OVCAR-3 ovarian; 73.5 µM and > 100 µM in the assay on HCT-15 colon; more than 100 µM in the assay with MDA-MB-231 breast; more than 100 µM with MOLT-4 leukemia. Besides, in the assay with HCC-2998 colon, the TGI is more than 100 µM.
Regarding `COc1ccc(C(=O)c2ccccc2)c(O)c1`, the GI50 with SNB-19 CNS was more than 100 µM; with OVCAR-3 ovarian it was more than 100 µM; with HCT-15 colon it was 80.7 µM; with MDA-MB-231 breast it was more than 100 µM; with MOLT-4 leukemia it was 70.6 µM; in the assay on HCC-2998 colon, more than 100 µM. Further, the TGI in the assay on SNB-19 CNS, with OVCAR-3 ovarian, in the assay with HCT-15 colon, with MDA-MB-231 breast, with MOLT-4 leukemia and with HCC-2998 colon was more than 100 µM in each case.
As to `COc1ccc2c(c1)[n+](=O)c(/C=C/C(=O)c1cc(OC)c(OC)c(OC)c1)c(C)n2[O-]`, the GI50 in the assay with BT-549 breast is 6.11 µM; with SNB-19 CNS it was 29.7 µM; with OVCAR-3 ovarian, 2.04 µM; in the assay on HCT-15 colon, 3.79 µM; in the assay on MDA-MB-231 breast it was 12.6 µM; in the assay on MOLT-4 leukemia it was 2.55 µM. Moreover, the GI50 in the assay with HCC-2998 colon is 23.4 µM. Moreover, the TGI in the assay with BT-549 breast was 65 µM; with SNB-19 CNS, more than 100 µM; with OVCAR-3 ovarian, 11.7 µM; in the assay on HCT-15 colon it was 23.2 µM; with MDA-MB-231 breast, 88.4 µM; in the assay on MOLT-4 leukemia it was 25.3 µM. The molecule also had a TGI in the assay on HCC-2998 colon of 68.7 µM.
For `O=C(CC1(O)CCCCC1)OC1CCCC1`, the TGI with BT-549 breast, in the assay on SNB-19 CNS, in the assay on OVCAR-3 ovarian, with HCT-15 colon and in the assay on MDA-MB-231 breast was more than 100 µM in each case.
With `CCNc1ccc2c(c1)C(=O)N(OS(C)(=O)=O)C2=O`, the TGI in the assay on BT-549 breast, in the assay on SNB-19 CNS, in the assay with OVCAR-3 ovarian, in the assay with HCT-15 colon, with MDA-MB-231 breast and with HCC-2998 colon was more than 100 µM each time.
In the case of `CC(C)C(Br)C(=O)NCC(=O)O` (centres undefined), the TGI with BT-549 breast, in the assay on SNB-19 CNS, with OVCAR-3 ovarian, in the assay on HCT-15 colon, with MDA-MB-231 breast and in the assay with MOLT-4 leukemia was more than 100 µM throughout.
As for `O=C(O)C(Cc1ccccc1)N1C(=O)/C(=C/C(Cl)=C/c2ccc([N+](=O)[O-])cc2)SC1=S` (centres undefined), the GI50 with OVCAR-3 ovarian is 1.76 µM; in the assay on HCT-15 colon, 1.92 µM; with MDA-MB-231 breast, 3.35 µM; in the assay with MOLT-4 leukemia, 3.14 µM; in the assay with HCC-2998 colon it was 1.96 µM. For the same molecule, the TGI was 3.51 µM in the assay on OVCAR-3 ovarian; 4.58 µM in the assay with HCT-15 colon; more than 100 µM in the assay with MDA-MB-231 breast; more than 100 µM with MOLT-4 leukemia; 3.5 µM in the assay with HCC-2998 colon.
As for `OC[C@H]1N[C@H](CO)[C@@H](O)[C@H]1O`, the TGI in the assay on BT-549 breast, in the assay on SNB-19 CNS, in the assay with HCT-15 colon, in the assay on MDA-MB-231 breast, in the assay on MOLT-4 leukemia and in the assay with HCC-2998 colon was more than 100 µM throughout.
As for `OC(Cc1cccc2ccccc12)CN1CCC(c2ccccc2)CC1` (centres undefined), the TGI was found to be 31.3 µM in the assay on BT-549 breast; 26.3 µM in the assay on SNB-19 CNS; 30.5 µM in the assay with OVCAR-3 ovarian; 30.4 µM in the assay with HCT-15 colon; 28.4 µM in the assay with MDA-MB-231 breast; 10.8 µM in the assay with HCC-2998 colon.
Take `NC(=S)c1cccc(C2Nc3ccccc3O2)c1` (centres undefined): the TGI in the assay on SNB-19 CNS, in the assay on OVCAR-3 ovarian, in the assay with HCT-15 colon, in the assay with MDA-MB-231 breast and in the assay with MOLT-4 leukemia was more than 100 µM in each case.
